Measurements taken from article PMC3006138, “Fexinidazole – A New Oral Nitroimidazole Drug Candidate Entering Clinical Development for the Treatment of Sleeping Sickness” (PLoS Neglected Tropical Diseases, 2010).
“Also recorded” adds a separate entry of the source.

Legend:
Salmonella typhimurium = assay: Ames test; format: cell-based; details: for bacterial mutagenicity: standard strains, with and without S9
Protocol: To evaluate bacterial mutagenicity, a full Ames test was carried out on fexinidazole and fexinidazole sulfone using the five strains of Salmonella typhimurium recommended by the relevant ICH regulatory guideline, namely TA1535, TA1537, TA98, TA100, and TA102, as well as the corresponding nitroreductase-deficient strains, [48]. Standard bacterial plate incorporation assays were carried out, essentially as described by Maron and Ames. Tests on fexinidazole were carried out with and without rat liver post-mitochondrial fraction plus co-factors (S9 mix) to provide a mammalian metabolic activation system. The S9 fraction was prepared from Spague-Dawley rats pretreated with the mixed cytochrome P 450 enzyme inducer Aroclor 1254. Tests on fexinidazole sulfone were carried out only in the absence of rat liver S9 (as this is a metabolite). After incubation at 37°C for three days, plates were scored for mutant colonies using a Colony Counter plate reader.

human lymphocytes = assay: In vitro micronucleus test; format: cell-based
Protocol: Duplicate human lymphocyte cultures were prepared from the pooled blood of two donors in two independent experiments. […] The test concentrations for micronucleus analysis were selected by evaluating the effect of fexinidazole on the replication index (RI). In each experiment, micronuclei were analysed at three concentrations. Similar tests were carried out on fexinidazole sulfone. As per the Ames test, this was carried out in the absence of rat liver S9 only.

mouse hepatocytes = assay: Hepatocyte intrinsic clearance and metabolite profile; format: in vitro ADME; details: fexinidazole 10 µM
Protocol: Fexinidazole was incubated with cryopreserved hepatocytes from male CD-1 mice, male Sprague Dawley rats, male beagle dogs, male cynomolgus monkeys, and from pooled white or African-American human donor samples (purchased commercially), at concentrations of 1 µM and 10 µM. […] The incubated samples were analyzed by LC-MS after extraction into acetonitrile.
A quality control analysis of fexinidazole was performed via 1H-NMR in DMSO and LC- […]
provided by the Swiss Tropical Institute (Basel, Switzerland).
Reagents and solvents were of analytical grade and obtained from Sigma-Aldrich (St. Louis, […]
Cryopreserved hepatocytes from the male CD1 mouse, lot CSI; male Sprague Dawley rat, lot LPL; male beagle dog, lot BWX; male cynomolgus monkey, lot EHH; and pooled human samples, lot MJI, were purchased from In Vitro Technologies Inc (Baltimore, Maryland, […]
5.4. In vitro Incubations
On the day of the experiment a 10 mM stock solution of fexinidazole in DMSO was prepared and, within 3 hours, aliquots of this freshly prepared solution, after suitable dilution, were added to the incubation matrix, to reach fexinidazole final concentrations of 1 and 10 µM. The final percentage of DMSO was 0.01% in the incubation samples for the […]
On the day of experiment, the cryopreserved hepatocytes were thawed following the detailed instructions provided by the supplier.
The number of viable cells was determined using a Trypan Blue exclusion method.
5.4.1. Intrinsic Clearance Study […]
µM with mouse, rat, dog, monkey and human hepatocytes (300000 cells/mL for the mouse and 1 million cells/mL for the other species) in a final incubation volume of 0.75 mL […]
Incubations were performed in duplicate in a 48-well plate under shaking. Sampling was performed using an automatic liquid handling system (Multiprobe II EX, Packard). At 0, 1, 5, 10, 15, 20, 30, 60 and 120 minutes, 50 µL aliquots of the incubates were taken, then 80 µL of ice-cold acetonitrile and 20 µL of 1 µM warfarin in acetonitrile (internal standard) were added, and samples centrifuged at 2000 rpm for 20 min. The supernatant was analyzed by LC-MS/MS. […]
the medium alone at t = 0 and 120 minutes.
For the determination of phase I and phase II activity of hepatocytes, 7-ethoxycoumarin (7-EC) 1 µM, and 7-hydroxycoumarin (7-HC) 30 µM were used as positive controls and incubated under the same conditions as fexinidazole. Aliquots of incubates were taken at 0, 10, 20, 30, 60 and 120 minutes and processed as fexinidazole samples.
5.4.2. Metabolite Profile Study
For metabolite profiling, fexinidazole was incubated at a concentration of 10 µM with mouse, rat, dog, monkey and human hepatocytes (300000 cells/mL for the mouse and 1 million cells/mL for the other species) in a final incubation volume of 2 mL Leibovitz L-15 […]
Aliquots of the incubation samples were taken at t = 0, 30 and 120 minutes; the metabolism was stopped by the addition of an equal volume of cold acetonitrile and the samples centrifuged at 1500 rpm for 20 min. The supernatant was stored at -20°C until analysis. Control incubations were performed with the compound in the medium alone […]
5.5. Analysis of Samples for Intrinsic Clearance Determination
The analysis of the samples for intrinsic clearance determination was performed by an LC-MS/MS method, using the following conditions:
HPLC Equipment and Conditions
HPLC system Agilent 1100 binary pump (Agilent, Palo Alto, USA)
Autosampler CTC Pal (Alfatech, San Jose, USA)
Analytical column Guard Column SB-C8 4.6 x 12.5 mm, 5 µm (Zorbax)
Column temperature ambient
Mobile phase A 10 mM ammonium formate pH 4.0: acetonitrile (95:5, v:v)
Mobile phase B 10 mM ammonium formate pH 4.0: acetonitrile (5:95, v:v) […]
Gradient conditions Step Total time (min) flow (µL/min) %A % B […]
MS Equipment and Conditions
Mass spectrometer API 4000 Triple Quadrupole (MDS-Sciex, Toronto, […]
Source Turbo Ion Spray (TIS)
Ion mode Positive for fexinidazole and 7-EC.
Negative for 7-HC, 7-HC sulphate and 7-HC glucuronide.

[1] = system: cytochrome P450 (CYP450) enzymes; assay: In vitro CYP-450 metabolism (whole panel); format: in vitro ADME, human; details: 1.0 µM, up to 60 min
Protocol: Duplicate samples of human recombinant CYP enzyme isotypes CYP1A2, CYP2B6, CYP2C8, CYP2C9, CYP2C19, CYP2D6, CYP3A4, CYP3A5 (10–30 pmol/mL) with NADPH as cofactor were incubated with fexinidazole, fexinidazole sulfoxide, or fexinidazole sulfone at a concentration of 1.0 µM for up to 60 min (pH 7.4, 37°C). Detection of the compounds was via HPLC-MS.

For `CSc1ccc(OCc2ncc([N+](=O)[O-])n2C)cc1` [Fexinidazole, 1-methyl-2-((p-(methylthio)phenoxy)methyl)-5-nitroimidazole], the mutagenic activity (Salmonella typhimurium; nitroreductase-deficient Salmonella strains) was “significantly reduced or abolished”, the bacterial mutagenicity (Salmonella typhimurium) was “elicited both frameshift and base substitution mutations; also recorded: mutagenic in the Ames test” and the “in vitro micronucleus test result” value (human lymphocytes) was “did not induce the formation of micronuclei”. For the same molecule, the Micronucleated binucleate cells (human lymphocytes; 20 μg/mL, 24-h PHA, +S9) was 0.50%, the Micronucleated binucleate cells (human lymphocytes; 20 μg/mL, 24-h PHA, −S9) was 0.50% and the Micronucleated binucleate cells (human lymphocytes; 20 μg/mL, 48-h PHA, +S9) was 0.60%. The Micronucleated binucleate cells (human lymphocytes; 20 μg/mL, 48-h PHA, −S9) was 1.1%, the Micronucleated binucleate cells (human lymphocytes; 40 μg/mL, 24-h PHA, +S9) was 0.55% and the Micronucleated binucleate cells (human lymphocytes; 40 μg/mL, 24-h PHA, −S9) was 0.40%. The Micronucleated binucleate cells (human lymphocytes; 40 μg/mL, 48-h PHA, +S9) was 1.20%, the Micronucleated binucleate cells (human lymphocytes; 40 μg/mL, 48-h PHA, −S9) was 0.60% and the Micronucleated binucleate cells (human lymphocytes; 80 μg/mL, 24-h PHA, +S9) was 0.75%. The Micronucleated binucleate cells (human lymphocytes; 80 μg/mL, 24-h PHA, −S9) was 0.70%, the Micronucleated binucleate cells (human lymphocytes; 80 μg/mL, 48-h PHA, +S9) was 0.40% and the Micronucleated binucleate cells (human lymphocytes; 80 μg/mL, 48-h PHA, −S9) was 0.90%. The “% of total drug related material” value (mouse hepatocytes; t=0) was 42%.

With `Cn1c([N+](=O)[O-])cnc1COc1ccc([S+](C)[O-])cc1` (stereo not shown) [Fexinidazole sulfoxide] the “metabolism by the enzymes tested” value [1] was “none of the enzymes tested metabolised”, the “% of total drug related material” value (mouse hepatocytes; 30 min) was 92% and the “% of total drug related material” value (mouse hepatocytes; 120 min) was 80%. For the same molecule, the “% of total drug related material” value (mouse hepatocytes; t=0) was 58%.

With `Cn1c([N+](=O)[O-])cnc1COc1ccc(S(C)(=O)=O)cc1` [Fexinidazole sulfone] the “metabolism by the enzymes tested” value [1] was “none of the enzymes tested metabolised”, the bacterial mutagenicity (Salmonella typhimurium) was “gave similar results to fexinidazole” and the “in vitro micronucleus test result” value (human lymphocytes) was “negative”. The “% of total drug related material” value (mouse hepatocytes; 30 min) was 8% and the “% of total drug related material” value (mouse hepatocytes; 120 min) was 20%.
